Consider two compounds from article PMC2879007 (Biochemical pharmacology, 2010).

Data set [1] in a line: serum pharmacokinetics in wild-type FVB/N mice. It is filed as in vivo. The following applies: for Cmax / MRT / Tmax / half-life: FVB/N (wild-type), mouse, ip.
A short description of data set [2]: serum pharmacokinetics in Tg-CYP2D6. It is filed as in vivo, mice.
Data set [3] concerns human CYP2D6 PM hepatocytes. Briefly: 5-MeO-DMT depletion and bufotenine formation in human CYP2D6 PM hepatocytes. Conditions: CYP2D6 PM hepatocytes, even co-incubated with harmaline.
Data set [4] deals with human CYP2D6 EM hepatocytes. Put plainly: 5-MeO-DMT depletion and bufotenine formation in human CYP2D6 EM hepatocytes. The following applies: CYP2D6 EM hepatocytes.
The target in another data set is purified human MAO-A. The following applies: reversible competitive inhibitor; cited from earlier work.
[5] abbreviates: wild-type mice, 5-MeO-DMT 2 mg/kg i.p., harmaline 5 mg/kg i.p.
The mark [6] stands for this setting: Tg-CYP2D6 (CYP2D6-humanized), mouse, serum, ip, 2 mg/kg.
The mark [7] stands for this setting: Tg-CYP2D6 (CYP2D6-humanized), mouse, serum, ip, 20 mg/kg.

Regarding `CN(C)CCc1c[nH]c2ccc(O)cc12` [Bufotenine, 5-hydroxy-N,N-dimethyltryptamine], the Cmax was 0.0514 ± 0.0091 µM in data set [1] (serum, 2 mg/kg); 0.21 ± 0.054 µM in data set [1] (serum, 20 mg/kg); 0.053 ± 0.013 µM in data set [2] (setting [6]). For the same compound, the MRT is 54.9 min in data set [1] (serum, 2 mg/kg); 55.8 min in data set [1] (serum, 20 mg/kg); 33.7 min in data set [2] (setting [6]); 52.8 min in data set [2] (setting [7]). In addition, the Tmax in data set [1] (serum, 2 mg/kg) was 11.3 min; in data set [1] (serum, 20 mg/kg), 21.3 min; in data set [2] (setting [6]), 8.8 min; in data set [2] (setting [7]) it was 27.5 min. For the same compound, the half-life in data set [1] (serum, 2 mg/kg) was 33 ± 26 min; in data set [1] (serum, 20 mg/kg), 25.4 ± 5.3 min; in data set [2] (setting [6]) it was 20.7 ± 9.8 min; in data set [2] (setting [7]) it was 18.5 ± 1.5 min. For the same compound, the “AUC0→∞” value came out at 2.69 ± 1.21 µmol·min/L in data set [1] (serum, wild-type mice, 2 mg/kg 5-MeO-DMT alone i.p.) and 1.82 ± 0.74 µmol·min/L in data set [2] (serum, Tg-CYP2D6 mice, 2 mg/kg 5-MeO-DMT alone i.p.). Further, the “AUC(Bufotenine)/AUC(5−MeO−DMT)” value in data set [1] (wild-type mice, 2 mg/kg 5-MeO-DMT alone i.p.) was 10.5 ± 4.4%; in data set [1] (wild-type mice, 2 mg/kg 5-MeO-DMT i.p. with 5 mg/kg harmaline i.p. pretreatment) it was 15.1 ± 2.9%; in data set [2] (Tg-CYP2D6 mice, 2 mg/kg 5-MeO-DMT alone i.p.), 8.5 ± 2.8%; in data set [2] (Tg-CYP2D6 mice, 2 mg/kg 5-MeO-DMT i.p. with 5 mg/kg harmaline i.p. pretreatment) it was 24.0 ± 3.3% ^a, ^b. Besides, the “increase of Cmax by co-administered harmaline” value in data set [1] (setting [5]) is listed as “about 2.6 fold”. In data set [1] (setting [5]), the “increase of MRT by co-administered harmaline” value is approximately 1.8 fold. Further, the “increase of systemic exposure (AUC0→∞) by harmaline pre-treatment” value came out at 6.1 fold in data set [1] (setting [5]) and 9.9 fold in data set [2] (Tg-CYP2D6 mice, 5-MeO-DMT 2 mg/kg i.p., harmaline 5 mg/kg i.p.). In data set [2] (20 mg/kg 5-MeO-DMT i.p.), the “higher systemic exposure in Tg-CYP2D6 mice than wild-type mice” value is given as 60%. Further, the “bufotenine formation from 5-MeO-DMT” value in data set [3] is “could not produce detectable bufotenine”; in data set [4] it was “only detected in incubations with CYP2D6 EM hepatocytes”.

For the compound `COc1ccc2c3c([nH]c2c1)C(C)=NCC3` [Harmaline], the Ki on purified human MAO-A was 0.048 µM.

The term Cmax denotes the peak of the concentration-time curve. The term MRT denotes the average time that molecules of a dose stay in the body. One may read the Tmax as the time from dosing to the highest level. Usually half-life stands for the time needed for the level to fall by half in the phase considered. A word on the Ki: it is the equilibrium dissociation constant of an inhibitor or competing ligand from its target.
